Activity calls are given as the source filed them. The calls are words filed in the database; no cut-off is given here.
Legend:
[1] = Antiproliferative activity against human HN-6 cells assessed as inhibition rate at 0.1 uM incubated for 72 hrs by MTT assay relative to control; assay type: functional
[2] = system: SCC-25; assay: Antiproliferative activity against human SCC-25 cells assessed as inhibition rate at 0.1 uM incubated for 72 hrs by MTT assay relative to control; assay type: functional
[3] = system: SCC-25; assay: Cytotoxicity against human SCC-25 cells incubated for 72 hrs by MTT assay; assay type: functional, cell-based; settings: SCC-25, 72 h
[4] = system: CAL-27; assay: Antiproliferative activity against human CAL-27 cells assessed as inhibition of cell communities at 10 uM treated for 11 days by plate clone formation assay; assay type: functional, cell-based; settings: time 11.0 day
[5] = system: SCC-9; assay: Cytotoxicity against human SCC-9 cells incubated for 72 hrs by MTT assay; assay type: functional, cell-based; settings: SCC-9, 72 h
[6] = Antiproliferative activity against human WSU HN-30 cells assessed as inhibition rate at 0.1 uM incubated for 72 hrs by MTT assay relative to control; assay type: functional; settings: WSU-HN30
[7] = Antiproliferative activity against human L02 cells assessed as inhibition rate at 0.1 uM incubated for 72 hrs by MTT assay relative to control; assay type: toxicity, cell-based
[8] = system: SCC-9; assay: Antiproliferative activity against human SCC-9 cells assessed as inhibition rate at 0.1 uM incubated for 72 hrs by MTT assay relative to control; assay type: functional
[9] = Cytotoxicity against human L02 cells incubated for 72 hrs by MTT assay; assay type: toxicity, cell-based
[10] = system: CAL-27; assay: Cytotoxicity against human CAL-27 cells incubated for 72 hrs by MTT assay; assay type: functional, cell-based; settings: CAL-27, 72 h
[11] = Cytotoxicity against human HN-6 cells incubated for 72 hrs by MTT assay; assay type: functional, cell-based; settings: HN-6, 72 h
[12] = Cytotoxicity against human […] incubated for 72 hrs by MTT assay; assay type: functional, cell-based; settings: WSU-HN30, 72 h
[13] = system: CAL-27; assay: Antiproliferative activity against human CAL-27 cells assessed as inhibition rate at 0.1 uM incubated for 72 hrs by MTT assay relative to control; assay type: functional

Row | SMILES | inhibition at 0.1 µM [1] | inhibition at 0.1 µM [2] | IC50 [3] | Activity [4] | IC50 [5] | inhibition at 0.1 µM [6] | inhibition at 72 h, 0.1 µM [7] | inhibition at 0.1 µM [8] | IC50 at 72 h [9] | IC50 [10] | IC50 [11] | IC50 [12] | inhibition at 0.1 µM [13]
1 | COc1cc2c(O[C@@H]3O[C@@H]4CO[C@@H](c5ccco5)O[C@H]4[C@H](O)[C@H]3O)c3c(c(-c4ccc5c(c4)OCO5)c2cc1OC)C(=O)OC3 | 58.7% | 54.6% | 4.31 nM | Active | 4.97 nM | 45.7% | 5.23% | 52.9% | > 10000 nM | 5.47 nM | 8.58 nM | 243 nM | 50.9%
2 | COc1cc2c(OCCOCCN)c3c(c(-c4ccc5c(c4)OCO5)c2cc1OC)C(=O)OC3 | 50.8% | 28.9% | 85 nM |  | 135 nM | 34.2% | 18.3% | 34.9% | > 10000 nM | 101 nM | 185 nM | 144 nM | 45.6%

Source: ChEMBL document CHEMBL6153048, “Synthesis and pharmacological evaluation of natural product diphyllin derivatives against head and neck squamous cell carcinoma” (Eur J Med Chem, 2025)
